# Measurements reported in patent US8192962B2, “Processes for detecting toxic substances” (Daikin Industries, Ltd., priority 2001, dated 2012).
# Tested on: Energy system protein genes
# Assay: DNA chip mRNA expression in yeast, energy system protein genes (Table 4)
# Type: cell-based, Saccharomyces cerevisiae S288C
# Experimental: Yeast (Saccharomyces cerevisiae S288C (α SUC2mal mel gap2 CUP1)) were incubated at 25° C. on YPD medium (yeast extract 1%, polypepton 2%, glucose 2%). One of toxic chemical substances was added to the cells at logarithmic growth phase, and the cells were further incubated for two hours. Cells were cultured without any chemical substance in the same condition, and were used as control. Concentrations of the chemical substances were defined to inhibit the growth of the yeast but not lead to death.
# After completion of the incubation, the culture was centrifuged to collect the cells. To the cells, sodium acetate buffer (50 mM sodium acetate, 10 mM EDTA, 1% SDS) was added, and the mixture was shaken at 65° C. for five minutes, followed by returning to room temperature, and obtaining the supernatant, of which the procedures were repeated two times. To the supernatant, ½ amount of a solution of phenol/chloroform was added, and the mixture was centrifuged to give a supernatant, which was added with an equal amount of chloroform, and the mixture was centrifuged to give a supernatant. To the supernatant, an equal amount of isopropanol containing 0.3 M sodium acetate was added, and the mixture was allowed to stand at room temperature for 30 minutes, after which the mixture was centrifuged to give a sediment of the whole RNAs. Seventy % ethanol was added to the sediment, and the mixture was again centrifuged to give a sediment, which was then dried and dissolved in water. mRNA was isolated from the whole RNAs as followings. In view of the fact that a poly A chain is attached to the 3′ terminus of mRNA, a polynucleotide having a poly T structure which was immobilized on the surface of latex beads was used to trap the mRNA, and then the mRNA was washed and eluted with spine column (Oligotex-dT30<Super>mRNA Purification Kit, Takara). Reverse transcription of the mRNA was conducted with a reverse transcriptase (Super Script II Reverse Transcriptase; catalogue No. 18064-014, GibcoBRL) using fluorescence-labeled nucleotides to give cDNAs that were introduced with Cy3-dUTP or Cy5-dUTP during the reverse transcription.
# The labeled cDNAs were dissolved in TE buffer (10mM Tris-HCl/1 mM EDTA, pH8.0), and the solution was dropped on the DNA chip containing the whole genes of yeast (DNA Chip Research Inc. Japan) so that the cDNAs were hybridized on the DNA chip at 65° C. for over 12 hours. The fluoresces intensity of the DNA chip was read with a scanner, and the ratio relative to the fluorescence intensity resulting from the absence of chemical substance was estimated as the following, which is shown in Tables 1 to 9: […]
smiles,measurement,setting,value
"CCCCCCCCCCCCOS(=O)(=O)[O-].[Na+] [(18), sodium lauryl sulfate]",The level of expressed mRNA in the presence of chemical substance/The level of expressed mRNA in the absence of chemical substance,yeast gene YAL060W,1.8
same,The level of expressed mRNA in the presence of chemical substance/The level of expressed mRNA in the absence of chemical substance,"yeast gene YBL058W, cells incubated two hours with the chemical substance",1.4
same,The level of expressed mRNA in the presence of chemical substance/The level of expressed mRNA in the absence of chemical substance,"yeast gene YBL099W, cells incubated two hours with the chemical substance",1.2
same,The level of expressed mRNA in the presence of chemical substance/The level of expressed mRNA in the absence of chemical substance,"yeast gene YBR001C, cells incubated two hours with the chemical substance",1.6
same,The level of expressed mRNA in the presence of chemical substance/The level of expressed mRNA in the absence of chemical substance,"yeast gene YBR185C, cells incubated two hours with the chemical substance",1.3
same,The level of expressed mRNA in the presence of chemical substance/The level of expressed mRNA in the absence of chemical substance,"yeast gene YBR221C, cells incubated two hours with the chemical substance",1.0
same,The level of expressed mRNA in the presence of chemical substance/The level of expressed mRNA in the absence of chemical substance,yeast gene YCL040W,1.7
same,The level of expressed mRNA in the presence of chemical substance/The level of expressed mRNA in the absence of chemical substance,yeast gene YCR012W,1.3
same,The level of expressed mRNA in the presence of chemical substance/The level of expressed mRNA in the absence of chemical substance,"yeast gene YCR046C, cells incubated two hours with the chemical substance",1.0
same,The level of expressed mRNA in the presence of chemical substance/The level of expressed mRNA in the absence of chemical substance,"yeast gene YCR105W, cells incubated two hours with the chemical substance",1.1
same,The level of expressed mRNA in the presence of chemical substance/The level of expressed mRNA in the absence of chemical substance,yeast gene YDL021W,3.2
same,The level of expressed mRNA in the presence of chemical substance/The level of expressed mRNA in the absence of chemical substance,"yeast gene YDL067C, cells incubated two hours with the chemical substance",1.7
same,The level of expressed mRNA in the presence of chemical substance/The level of expressed mRNA in the absence of chemical substance,"yeast gene YDL078C, cells incubated two hours with the chemical substance",2.0
same,The level of expressed mRNA in the presence of chemical substance/The level of expressed mRNA in the absence of chemical substance,"yeast gene YDL107W, cells incubated two hours with the chemical substance",1.5
same,The level of expressed mRNA in the presence of chemical substance/The level of expressed mRNA in the absence of chemical substance,yeast gene YDL174C,4.0
same,The level of expressed mRNA in the presence of chemical substance/The level of expressed mRNA in the absence of chemical substance,"yeast gene YDL181W, cells incubated two hours with the chemical substance",1.4
same,The level of expressed mRNA in the presence of chemical substance/The level of expressed mRNA in the absence of chemical substance,yeast gene YDR001C,1.6
same,The level of expressed mRNA in the presence of chemical substance/The level of expressed mRNA in the absence of chemical substance,"yeast gene YDR050C, cells incubated two hours with the chemical substance",2.3
same,The level of expressed mRNA in the presence of chemical substance/The level of expressed mRNA in the absence of chemical substance,"yeast gene YDR079W, cells incubated two hours with the chemical substance",1.3
same,The level of expressed mRNA in the presence of chemical substance/The level of expressed mRNA in the absence of chemical substance,"yeast gene YDR178W, cells incubated two hours with the chemical substance",2.3
same,The level of expressed mRNA in the presence of chemical substance/The level of expressed mRNA in the absence of chemical substance,yeast gene YDR231C,1.3
same,The level of expressed mRNA in the presence of chemical substance/The level of expressed mRNA in the absence of chemical substance,"yeast gene YDR298C, cells incubated two hours with the chemical substance",1.6
same,The level of expressed mRNA in the presence of chemical substance/The level of expressed mRNA in the absence of chemical substance,"yeast gene YDR377W, cells incubated two hours with the chemical substance",2.5
same,The level of expressed mRNA in the presence of chemical substance/The level of expressed mRNA in the absence of chemical substance,"yeast gene YDR529C, cells incubated two hours with the chemical substance",2.3
same,The level of expressed mRNA in the presence of chemical substance/The level of expressed mRNA in the absence of chemical substance,"yeast gene YEL024W, cells incubated two hours with the chemical substance",1.5
same,The level of expressed mRNA in the presence of chemical substance/The level of expressed mRNA in the absence of chemical substance,"yeast gene YEL039C, cells incubated two hours with the chemical substance",1.1
same,The level of expressed mRNA in the presence of chemical substance/The level of expressed mRNA in the absence of chemical substance,yeast gene YER178W,0.9
same,The level of expressed mRNA in the presence of chemical substance/The level of expressed mRNA in the absence of chemical substance,yeast gene YFL057C,1.3
same,The level of expressed mRNA in the presence of chemical substance/The level of expressed mRNA in the absence of chemical substance,yeast gene YFR053C,2.2
same,The level of expressed mRNA in the presence of chemical substance/The level of expressed mRNA in the absence of chemical substance,"yeast gene YGL018C, cells incubated two hours with the chemical substance",1.0
same,The level of expressed mRNA in the presence of chemical substance/The level of expressed mRNA in the absence of chemical substance,yeast gene YGL062W,0.9
same,The level of expressed mRNA in the presence of chemical substance/The level of expressed mRNA in the absence of chemical substance,"yeast gene YGL187C, cells incubated two hours with the chemical substance",2.4
same,The level of expressed mRNA in the presence of chemical substance/The level of expressed mRNA in the absence of chemical substance,"yeast gene YGL191W, cells incubated two hours with the chemical substance",1.7
same,The level of expressed mRNA in the presence of chemical substance/The level of expressed mRNA in the absence of chemical substance,"yeast gene YGL205W, cells incubated two hours with the chemical substance",9.1
same,The level of expressed mRNA in the presence of chemical substance/The level of expressed mRNA in the absence of chemical substance,"yeast gene YGL256W, cells incubated two hours with the chemical substance",0.8
same,The level of expressed mRNA in the presence of chemical substance/The level of expressed mRNA in the absence of chemical substance,yeast gene YGR008C,4.2
same,The level of expressed mRNA in the presence of chemical substance/The level of expressed mRNA in the absence of chemical substance,yeast gene YGR043C,4.8
same,The level of expressed mRNA in the presence of chemical substance/The level of expressed mRNA in the absence of chemical substance,"yeast gene YGR062C, cells incubated two hours with the chemical substance, 25° C., YPD medium",1.1
same,The level of expressed mRNA in the presence of chemical substance/The level of expressed mRNA in the absence of chemical substance,"yeast gene YGR087C, cells incubated two hours with the chemical substance",0.6
same,The level of expressed mRNA in the presence of chemical substance/The level of expressed mRNA in the absence of chemical substance,"yeast gene YGR174C, cells incubated two hours with the chemical substance",2.3
same,The level of expressed mRNA in the presence of chemical substance/The level of expressed mRNA in the absence of chemical substance,yeast gene YGR192C,1.3
same,The level of expressed mRNA in the presence of chemical substance/The level of expressed mRNA in the absence of chemical substance,yeast gene YGR244C,3.1
same,The level of expressed mRNA in the presence of chemical substance/The level of expressed mRNA in the absence of chemical substance,yeast gene YGR254W,1.2
same,The level of expressed mRNA in the presence of chemical substance/The level of expressed mRNA in the absence of chemical substance,yeast gene YHR179W,1.6
same,The level of expressed mRNA in the presence of chemical substance/The level of expressed mRNA in the absence of chemical substance,yeast gene YIL160C,3.0
same,The level of expressed mRNA in the presence of chemical substance/The level of expressed mRNA in the absence of chemical substance,"yeast gene YIR031C, cells incubated two hours with the chemical substance",0.8
same,The level of expressed mRNA in the presence of chemical substance/The level of expressed mRNA in the absence of chemical substance,yeast gene YJL052W,1.9
same,The level of expressed mRNA in the presence of chemical substance/The level of expressed mRNA in the absence of chemical substance,"yeast gene YJL121C, cells incubated two hours with the chemical substance",1.0
same,The level of expressed mRNA in the presence of chemical substance/The level of expressed mRNA in the absence of chemical substance,"yeast gene YJL166W, cells incubated two hours with the chemical substance",4.0
same,The level of expressed mRNA in the presence of chemical substance/The level of expressed mRNA in the absence of chemical substance,"yeast gene YJL216C, cells incubated two hours with the chemical substance",2.0
